Experimental data as given in PubChem BioAssay AID256 (DTP/NCI, 2004).
Several values for one entry are separate records, joined by “and”; a condition that tells them apart may be missing. Equal values may be shown once. Toxic doses and inconclusive results are not listed. The calls were made as follows: active = survival T/C of 150% or more; inactive = T/C below 125% in these data.

Tested on: CD2F1 mice, L1210 leukemia ip, survival T/C
Experiment: NCI In Vivo Anticancer Drug Screen. Data for tumor model L1210 Leukemia (intraperitoneal) in CD2F1 (CDF1) mice
Conditions: endpoint: mean survival time, higher = longer survival
Method in brief: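 Tumor-bearing mice (transplanted tumor) were split into treated and vehicle control groups, and the measured endpoint of each treated group was divided by that of its vehicle controls.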

[1] = dose: 50.0 mg/kg/injection, schedule: Q01DX001 (ip), vehicle: saline
[2] = dose: 100.0 mg/kg/injection, schedule: Q01DX009 (ip), vehicle: saline with Tween-80
[3] = dose: 100.0 mg/kg/injection, schedule: Q04DX003 (ip), vehicle: saline with Tween-80
[4] = dose: 200.0 mg/kg/injection, schedule: Q01DX009 (ip), vehicle: saline with Tween-80
[5] = dose: 200.0 mg/kg/injection, schedule: Q04DX003 (ip), vehicle: saline with Tween-80
[6] = dose: 400.0 mg/kg/injection, schedule: Q01DX009 (ip), vehicle: saline with Tween-80
[7] = dose: 400.0 mg/kg/injection, schedule: Q04DX003 (ip), vehicle: saline with Tween-80
[8] = dose: 12.5 mg/kg/injection, schedule: Q01DX009 (ip), vehicle: saline
[9] = dose: 25.0 mg/kg/injection, schedule: Q01DX009 (ip), vehicle: saline
[10] = dose: 50.0 mg/kg/injection, schedule: Q01DX009 (ip), vehicle: saline

Measured: T/C

COc1ccc2c(c1)OC(OC)(c1ccc(OC)c(OC)c1)C(O)(OC)C2=O (centres undefined)
inactive: [1] 102 % of control | dose: 100.0 mg/kg/injection, schedule: Q01DX001 (ip), vehicle: saline 98 % of control | dose: 200.0 mg/kg/injection, schedule: Q01DX001 (ip), vehicle: saline 98 % of control | dose: 400.0 mg/kg/injection, schedule: Q01DX001 (ip), vehicle: saline 96 % of control

Nc1c(Cl)cccc1C(=O)c1ccccc1C(=O)O
inactive: [2] 97 % of control | [3] 101 % of control | [4] 95 % of control | [5] 101 % of control | [6] 101 % of control | [7] 103 % of control

O=C(O)c1c[nH]c2ccc([N+](=O)[O-])cc2c1=O
inactive: dose: 50.0 mg/kg/injection, schedule: Q01DX001 (ip), vehicle: Klucel (hydroxypropylcellulose) (HPC) 104 % of control | dose: 100.0 mg/kg/injection, schedule: Q01DX001 (ip), vehicle: Klucel (hydroxypropylcellulose) (HPC) 120 % of control | dose: 100.0 mg/kg/injection, schedule: Q01DX001 (ip), vehicle: saline with Tween-80 93 % of control | dose: 200.0 mg/kg/injection, schedule: Q01DX001 (ip), vehicle: saline with Tween-80 89 % of control | dose: 400.0 mg/kg/injection, schedule: Q01DX001 (ip), vehicle: saline with Tween-80 86 % of control

CCCCCCCCC(=O)c1ccc(N=Nc2ccc(OCC)cc2)cc1
inactive: [3] 94 % of control | [5] 91 % of control | [7] 89 % of control

O=[N+]([O-])c1ccc(/C=N\N=C\c2ccco2)cc1
inactive: [3] 88 % of control | [4] 86 % of control | [5] 111 % of control | [7] 102 % of control

CC(C)(C)N1CC1
inactive: dose: 100.0 mg/kg/injection, schedule: Q04DX002 (ip), vehicle: saline with Tween-80 102 % of control | dose: 400.0 mg/kg/injection, schedule: Q04DX002 (ip), vehicle: saline with Tween-80 94 % of control

CC(=O)c1ccc(Br)c([N+](=O)[O-])c1
inactive: dose: 100.0 mg/kg/injection, schedule: Q01DX009 (ip), vehicle: Klucel (hydroxypropylcellulose) (HPC) 102 % of control | dose: 100.0 mg/kg/injection, schedule: Q04DX003 (ip), vehicle: Klucel (hydroxypropylcellulose) (HPC) 96 % of control | dose: 200.0 mg/kg/injection, schedule: Q01DX009 (ip), vehicle: Klucel (hydroxypropylcellulose) (HPC) 98 % of control | dose: 200.0 mg/kg/injection, schedule: Q04DX003 (ip), vehicle: Klucel (hydroxypropylcellulose) (HPC) 100 % of control | dose: 400.0 mg/kg/injection, schedule: Q01DX009 (ip), vehicle: Klucel (hydroxypropylcellulose) (HPC) 102 % of control | dose: 400.0 mg/kg/injection, schedule: Q04DX003 (ip), vehicle: Klucel (hydroxypropylcellulose) (HPC) 105 % of control

C=CCOCC(O)CN(CCC)CCC (centres undefined)
inactive: [8] 103 % of control | [9] 95 % of control | dose: 25.0 mg/kg/injection, schedule: Q04DX003 (ip), vehicle: saline 93 % of control | [10] 103 % of control | dose: 50.0 mg/kg/injection, schedule: Q04DX003 (ip), vehicle: saline 89 % of control | [3] 97 % of control

CN(C)c1ccc(/C=N/NC(=O)CNC(=O)Nc2cccc(C(F)(F)F)c2)c(Cl)c1
inactive: dose: 50.0 mg/kg/injection, schedule: Q01DX009 (ip), vehicle: saline with Tween-80 88 % of control | [2] 88 % of control | [4] 88 % of control

CN(C)CC(C)(C)C(=O)c1ccccc1
inactive: dose: 100.0 mg/kg/injection, schedule: Q04DX002 (ip), vehicle: saline 93 % of control

O=C(O)c1ccc(P(=O)(O)O)cc1[N+](=O)[O-]
inactive: [9] 91 % of control | [10] 86 % of control

O=C(Nc1ccc(S(=O)(=O)N2CCCCC2)cc1)OC(c1ccccc1)c1ccccc1
inactive: dose: 5.0 mg/kg/injection, schedule: Q01DX001 (ip), vehicle: other 103 % of control | dose: 10.0 mg/kg/injection, schedule: Q01DX001 (ip), vehicle: other 100 % of control | dose: 20.0 mg/kg/injection, schedule: Q01DX001 (ip), vehicle: other 93 % of control | dose: 40.0 mg/kg/injection, schedule: Q01DX001 (ip), vehicle: other 100 % of control | dose: 80.0 mg/kg/injection, schedule: Q01DX001 (ip), vehicle: other 102 % of control

CN(C)c1cc2c3c(c1)CCCN3CCC2
inactive: dose: 3.13 mg/kg/injection, schedule: Q01DX009 (ip), vehicle: saline 98 % of control | dose: 6.25 mg/kg/injection, schedule: Q01DX009 (ip), vehicle: saline 109 % of control | [8] 96 % of control

Nc1cc(NC(c2ccccc2)c2ccccc2)c2[nH]cnc2n1
inactive: dose: 100.0 mg/kg/injection, schedule: Q01DX001 (ip), vehicle: other 91 % of control | dose: 200.0 mg/kg/injection, schedule: Q01DX001 (ip), vehicle: other 95 % of control

O=[N+]([O-])c1ccc(/C=C/C=C/c2ccc(Cl)c(S(=O)(=O)F)c2)c(Cl)c1
inactive: [2] 97 % of control | [3] 102 % of control | [4] 103 % of control | [5] 102 % of control | [6] 106 % of control | [7] 102 % of control

CSCCC(NC=O)C(=O)O (centres undefined)
inactive: dose: 12.5 mg/kg/injection, schedule: Q01DX001 (ip), vehicle: saline 98 % of control | dose: 25.0 mg/kg/injection, schedule: Q01DX001 (ip), vehicle: saline 93 % of control | [1] 106 % of control

CCCCCCCCCCCCCCNC(=O)C[N+](C)(C)Cc1ccccc1
inactive: dose: 0.25 mg/kg/injection, schedule: Q01DX009 (ip), vehicle: saline sonified 101 % of control | dose: 0.5 mg/kg/injection, schedule: Q01DX009 (ip), vehicle: saline sonified 95 % of control | dose: 1.0 mg/kg/injection, schedule: Q01DX009 (ip), vehicle: saline sonified 95 % of control | dose: 5.0 mg/kg/injection, schedule: Q04DX003 (ip), vehicle: saline 96 % of control | dose: 10.0 mg/kg/injection, schedule: Q04DX003 (ip), vehicle: saline 96 % of control

COc1cc2c(c(OC)c1OC)-c1ccc(SC)c(=O)cc1[C@@H](NC(=O)CCl)CC2
inactive: dose: 0.05 mg/kg/injection, schedule: Q01DX009 (ip), vehicle: water 108 % of control | dose: 0.1 mg/kg/injection, schedule: Q01DX009 (ip), vehicle: water 106 % of control | dose: 0.2 mg/kg/injection, schedule: Q01DX009 (ip), vehicle: water 115 % of control | dose: 0.4 mg/kg/injection, schedule: Q01DX009 (ip), vehicle: water 108 % of control and 111 % of control | dose: 0.8 mg/kg/injection, schedule: Q01DX009 (ip), vehicle: water 120 % of control and 108 % of control

C#CCCCCCC#[C][Hg][C]#CCCCCCC#C.C#CCCCCCC#[C][Hg][C]#CCCCCCC#C
inactive: dose: 75.0 mg/kg/injection, schedule: Q04DX003 (ip), vehicle: saline 91 % of control | dose: 150.0 mg/kg/injection, schedule: Q01DX009 (ip), vehicle: saline 91 % of control | dose: 150.0 mg/kg/injection, schedule: Q04DX003 (ip), vehicle: saline 94 % of control | dose: 300.0 mg/kg/injection, schedule: Q04DX003 (ip), vehicle: saline 94 % of control

CCOC(=O)C(Cc1c[nH]c2ccccc12)(NC(C)=O)C(=O)OCC
inactive: [3] 98 % of control | [5] 96 % of control | [7] 104 % of control

Cc1ccc(NC(=S)NCCO)cc1
inactive: [2] 86 % of control | [4] 92 % of control | [6] 88 % of control

S=C(S)Nc1cccc2ccccc12
inactive: [2] 93 % of control | [4] 97 % of control | [6] 93 % of control
